Like-named read-outs stand apart in the source and are kept apart here.
Assays:
5HT2B receptors = target: T1, 5HT2B receptors (Homo sapiens, UniProt P41595); test: Human 5-HT2B functional high throughput screening assay in CHO-K1 cells (calcium flux); assay type: cell-based; settings: for EC50: CHO-K1 cells, calcium flux
T1 construct: expressed in transfected cells; host or cells: CHO-K1 cells
Outline: (§1)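 Agonism is measured as intracellular calcium increase in receptor-overexpressing CHO-K1 cells, read by FLIPR at 25 °C. Responses are expressed relative to serotonin, with EC50 and Emax derived from a 4-parameter logistic curve over 6 concentrations starting at 10 μM.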

5HT2C receptors = target: T2, 5HT2C receptors (Homo sapiens, UniProt P28335); test: Human 5-HT2C functional high throughput screening assay in CHO-K1 cells (calcium flux); assay type: cell-based; parameters: expressed in transfected cells; host or cells: CHO-K1 cells; settings: for EC50: CHO-K1 cells, calcium flux; for Emax: CHO-K1
T2 sequence (P28335 33-458): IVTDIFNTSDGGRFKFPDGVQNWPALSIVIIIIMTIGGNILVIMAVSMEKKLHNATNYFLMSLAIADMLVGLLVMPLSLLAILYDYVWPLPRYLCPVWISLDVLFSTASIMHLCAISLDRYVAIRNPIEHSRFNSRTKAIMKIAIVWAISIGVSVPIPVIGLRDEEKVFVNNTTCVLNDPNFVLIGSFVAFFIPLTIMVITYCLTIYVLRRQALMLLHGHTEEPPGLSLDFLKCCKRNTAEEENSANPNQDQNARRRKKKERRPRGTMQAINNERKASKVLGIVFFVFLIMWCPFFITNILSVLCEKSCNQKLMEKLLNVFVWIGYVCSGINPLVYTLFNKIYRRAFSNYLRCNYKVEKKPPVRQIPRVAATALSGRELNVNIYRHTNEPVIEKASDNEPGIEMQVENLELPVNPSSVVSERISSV
Outline: as §1

[1] = 5-HT2B agonist activity, read-out: EC50
[2] = 5-HT2B, maximum functional response as percentage relative to the effect of serotonin
[3] = 5-HT2C agonist activity, read-out: EC50
[4] = 5-HT2C, maximum functional response as percentage relative to the effect of serotonin, read-out: Emax
[5] = 5-HT2C, maximum functional response as percentage relative to the effect of serotonin

T1 sequence (P41595 whole entry): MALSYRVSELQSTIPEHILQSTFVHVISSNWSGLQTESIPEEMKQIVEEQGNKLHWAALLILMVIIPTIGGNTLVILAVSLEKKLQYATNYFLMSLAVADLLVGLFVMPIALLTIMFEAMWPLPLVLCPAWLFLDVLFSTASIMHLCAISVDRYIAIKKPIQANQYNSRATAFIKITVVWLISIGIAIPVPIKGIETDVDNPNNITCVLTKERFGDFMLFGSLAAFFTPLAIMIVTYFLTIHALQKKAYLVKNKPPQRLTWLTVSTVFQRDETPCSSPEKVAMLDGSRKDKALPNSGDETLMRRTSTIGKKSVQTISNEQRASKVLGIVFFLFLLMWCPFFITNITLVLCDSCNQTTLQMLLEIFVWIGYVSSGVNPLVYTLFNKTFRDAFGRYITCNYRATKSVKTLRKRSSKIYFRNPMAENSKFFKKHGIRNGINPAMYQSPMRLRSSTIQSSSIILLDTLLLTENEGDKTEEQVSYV

Row | SMILES | EC50 (5HT2B receptors; [1]) [nM] | Emax (5HT2B receptors; [2]) | EC50 (5HT2C receptors; [3]) [nM] | Emax (5HT2C receptors; [4]) [%] | Emax (5HT2B receptors; CHO-K1) [%] | EC50 (5HT2B receptors; EC50, 5-HT2B agonist activity) [nM] | Emax (5HT2C receptors; [5]) [%] | EC50 (5HT2C receptors; EC50, 5-HT2C agonist activity) [nM] | Emax (5HT2B receptors) | Emax (5HT2C receptors) [%]
1 | COc1ccc(S(=O)(=O)N2Cc3cccnc3[C@@H]3CNC[C@H]3C2)cc1 (relative stereo) [Example 346, Trans-6-[(4-methoxyphenyl)sulfonyl]-5,6,7,7a,8,9,10,10a-octahydropyrido[3,2-c]pyrrolo[3,4-e]azepine] | > 10000 | inactive | 100 | 85 |  |  |  |  |  | 
2 | O=S(=O)(c1cccc(F)c1)N1Cc2cccnc2[C@@H]2CNC[C@H]2C1 (relative stereo) [Example 337, Trans-6-[(3-fluorophenyl)sulfonyl]-5,6,7,7a,8,9,10,10a-octahydropyrido[3,2-c]pyrrolo[3,4-e]azepine] |  |  |  |  | 30 | 1000 | 90 | 90 |  | 
3 | O=C1NC[C@@H]2CNC[C@H]2c2ccc(OCc3ccccc3C(F)(F)F)cc21 (relative stereo) [Example 148, Trans-8-(2-(trifluoromethyl)benzyloxy)-1,2,3,3a,4,5-hexahydrobenzo[e]pyrrolo[3,4-c]azepin-6(10bH)-one] | > 10000 | inactive | 0.9 | > 120 |  |  |  |  |  | 
4 | Fc1ccc2c(c1)OCC[C@H]1CN(Cc3ccccc3)C[C@H]21 (relative stereo) [Example 107, Trans-2-benzyl-8-fluoro-2,3,3a,4,5,10b-hexahydro-1H-[1]benzoxepino[4,5-c]pyrrole] |  |  |  |  | 15 | 700 | 110 | 90 |  | 
5 | CN1C[C@H]2CNC(=O)c3cccc(F)c3[C@@H]2C1 (relative stereo) [Example 89, Trans-10-fluoro-2-methyl-1,2,3,3a,4,5-hexahydrobenzo[e]pyrrolo[3,4-c]azepin-6(10bH)-one] |  |  |  |  | 33 | 560 | > 120 | 11.5 |  | 
6 | O=C1NC[C@@H]2CNC[C@H]2c2cccnc21 (relative stereo) [Example 157, Trans-1,2,3,3a,4,5-hexahydropyrido[3,2-e]pyrrolo[3,4-c]azepin-6(10bH)-one] | > 10000 | inactive | 3000 |  |  |  | 110 |  |  | 
7 | C[C@@H](O)c1cc(-c2ccc3c(c2)C(=O)NC[C@H]2CN(C)C[C@H]32)ccc1F (single isomer, unassigned) [Example 353] | > 10000 | inactive | 0.3 | 110 |  |  |  |  |  | 
8 | CN1C[C@H]2CNC(=O)c3cc(-c4ccccc4F)ccc3[C@@H]2C1 (relative stereo) [Example 77, Trans-8-(2-fluorophenyl)-2-methyl-1,2,3,3a,4,5-hexahydrobenzo[e]pyrrolo[3,4-c]azepin-6(10bH)-one] | > 10000 | inactive | 5.8 | > 120 |  |  |  |  |  | 
9 | Fc1cccc2c1OCC[C@H]1CNC[C@H]21 (relative stereo) [Example 281, Trans-7-fluoro-2,3,3a,4,5,10b-hexahydro-1H-[1]benzoxepino[4,5-c]pyrrole] |  |  |  |  | 90 | 100 | 100 | 8 |  | 
10 | Clc1cc(Br)c2c(c1)[C@@H]1CNC[C@@H]1CCO2 (relative stereo) [Example 393, Cis-7-bromo-9-chloro-2,3,3a,4,5,10b-hexahydro-1H-[1]benzoxepino[4,5-c]pyrrole] |  |  |  |  | 20 | 100 | 60 | 200 |  | 
11 | CN1C[C@H]2CNC(=O)c3cc(-c4ccc(F)c(F)c4)ccc3[C@@H]2C1 (relative stereo) [Example 78, Trans-8-(3,4-difluorophenyl)-2-methyl-1,2,3,3a,4,5-hexahydrobenzo[e]pyrrolo[3,4-c]azepin-6(10bH)-one] | > 10000 | inactive | 6.6 | > 120 |  |  |  |  |  | 
12 | C[C@H](O)c1cccc(-c2ccc3c(c2)C(=O)NC[C@H]2CN(C)C[C@H]32)c1 [Example 293, (3aS,10bS)-8-{3-[(1S)-1-Hydroxyethyl]phenyl}-2-methyl-2,3,3a,4,5,10b-hexahydropyrrolo[3,4-d][2]benzazepin-6(1H)-one] |  | inactive | 2 |  |  |  |  |  |  | 
13 | CN1C[C@H]2CNC(=O)c3cc(-c4cccc(F)c4)ccc3[C@@H]2C1 (relative stereo) [Example 76, Trans-8-(3-fluorophenyl)-2-methyl-1,2,3,3a,4,5-hexahydrobenzo[e]pyrrolo[3,4-c]azepin-6(10bH)-one] | > 10000 | inactive | 11 | > 120 |  |  |  |  |  | 
14 | COc1ccccc1CCOc1ccc2c(c1)C(=O)NC[C@@H]1CNC[C@@H]21 (relative stereo) [Example 173, Trans-8-(2-methoxyphenethoxy)-1,2,3,3a,4,5-hexahydrobenzo[e]pyrrolo[3,4-c]azepin-6(10bH)-one] | > 10000 | inactive | 20 | > 120 |  |  |  |  |  | 
15 | CN1C[C@@H]2CNC(=O)c3cc(OCc4ccccc4F)ccc3[C@H]2C1 [Example 207, (3aS,10bS)-8-(2-Fluorobenzyloxy)-2-methyl-1,2,3,3a,4,5-hexahydrobenzo[e]pyrrolo[3,4-c]azepin-6(10bH)-one] | > 10000 | inactive | 1 | > 120 |  |  |  |  |  | 
16 | Cc1ccc2c(c1)OCC[C@H]1CNC[C@H]21 (relative stereo) [Example 373, Trans-8-methyl-2,3,3a,4,5,10b-hexahydro-1H-[1]benzoxepino[4,5-c]pyrrole] |  |  |  |  | 70 | 50 | 100 | 6 |  | 
17 | O=C1NC[C@@H]2CNC[C@H]2c2ccc(C3CCOCC3)cc21 (relative stereo) [Example 265, Trans-8-(tetrahydro-2H-pyran-4-yl)-1,2,3,3a,4,5-hexahydrobenzo[c]pyrrolo[3,4-e]azepin-6(10bH)-one] | > 10000 | inactive | 100 | > 120 |  |  |  |  |  | 
18 | CN1C[C@H]2CNC(=O)c3cc(/C=C/C4CC4)ccc3[C@@H]2C1 (relative stereo) [Example 305, Trans-8-[(E)-2-cyclopropylvinyl]-2-methyl-2,3,3a,4,5,10b-hexahydropyrrolo[3,4-d][2]benzazepin-6(1H)-one] |  | inactive |  |  |  | > 10000 | 90 | 6 |  | 
19 | CC(C)c1cccc(-c2ccc3c(c2)C(=O)NC[C@@H]2CN(C)C[C@@H]32)c1 (relative stereo) [Example 379, Trans-8-(3-isopropylphenyl)-2-methyl-2,3,3a,4,5,10b-hexahydropyrrolo[3,4-d][2]benzazepin-6(1H)-one] | > 10000 | inactive | 5 | 100 |  |  |  |  |  | 
20 | CNC(=O)c1ccc(-c2cccc3c2OCC[C@H]2CNC[C@H]32)cc1 (relative stereo) [Example 371, 4-[Trans-2,3,3a,4,5,10b-hexahydro-1H-[1]benzoxepino[4,5-c]pyrrol-7-yl]-N-methylbenzamide] | > 10000 | inactive | 600 | 95 |  |  |  |  |  | 
21 | CC(=O)c1cccc(-c2ccc3c(c2)C(=O)NC[C@H]2CN(C)C[C@H]32)c1 [Example 278, (3aS,10bS)-8-(3-Acetylphenyl)-2-methyl-1,2,3,3a,4,5-hexahydrobenzo[e]pyrrolo[3,4-c]azepin-6(10bH)-one] | > 10000 | inactive | 2 | 120 |  |  |  |  |  | 
22 | O=C1NC[C@@H]2CN(Cc3ccccc3)C[C@H]2c2ccc(OCCc3ccccc3)cc21 (relative stereo) [Example 121, Trans-2-benzyl-8-phenethoxy-1,2,3,3a,4,5-hexahydrobenzo[e]pyrrolo[3,4-c]azepin-6(10bH)-one] | > 10000 | inactive | 200 | 120 |  |  |  |  |  | 
23 | Clc1ccc2c(c1)[C@H]1CNC[C@@H]1CCO2 [Example 233, (3aR,10bS)-9-Chloro-2,3,3a,4,5,10b-hexahydro-1H-[1]benzoxepino[4,5-c]pyrrole] |  |  |  |  | 55 |  | > 120 |  |  | 
24 | CC(C)COc1ccc2c(c1)C(=O)NC[C@@H]1CN(CCF)C[C@@H]21 (relative stereo) [Example 380, Trans-2-(2-fluoroethyl)-8-isobutoxy-2,3,3a,4,5,10b-hexahydropyrrolo[3,4-d][2]benzazepin-6(1H)-one] | > 10000 |  | 300 |  |  |  |  |  | inactive | 75
25 | FC(F)(F)Oc1ccc2c(c1)[C@H]1CNC[C@@H]1CCO2 (relative stereo) [Example 282, Trans-9-(trifluoromethoxy)-2,3,3a,4,5,10b-hexahydro-1H-[1]benzoxepino[4,5-c]pyrrole] | 200 |  | 900 |  | 30 |  | 70 |  |  | 

Reference: patent US8846951B2 (AbbVie Inc., priority 2009, dated 2014)
